The results in this text go back to patent US4224332A, “1-Aza-[2,2,2]-bicyclooctanes and anti-depressant and anti-parkinsonian compositions thereof” (Pharmindustrie, priority 1978, dated 1980).

Entries after “also recorded” stand apart in the source; their conditions may differ. Like-named read-outs stand apart in the source and are kept apart here.

The IC50 is the midpoint of a concentration-inhibition curve. A word on the LD50: it is the dose expected to kill half of the subjects tested. Read a low LD50 as greater toxicity.

Series [1] relates to uptake of the noradrenaline (NA). Description: inhibition of the uptake of noradrenaline (NA) by synaptosomes of the rat's brain, hypothalamus. It counts as biochemical. The note with it: in vitro; for IC50: rat brain synaptosomes, hypothalamus.
Text: (§1) The results are expressed by an inhibiting concentration IC50, which represents the dose of product in micromoles per liter reducing by 50% the uptake of the noradrenaline (NA), the dopamine (DA), the serotonine (5-HT), or the choline in the specific regions of the brain (hypothalamus,striatum, medulla+pons) where the corresponding neurons predominate.
The test system of series [2] is uptake of the serotonine (5-HT). Description: inhibition of the uptake of serotonine (5-HT) by synaptosomes of the rat's brain, medulla + pons. The following applies: in vitro; for IC50: rat brain synaptosomes, medulla + pons. It is filed as biochemical.
Text: as §1
The test system of series [3] is hypothermia caused by reserpine. As to the kind of experiment: action on hypothermia caused by reserpine in mice. It is filed as in vivo. The following applies: Mus musculus, po, read-out: ED50 p.o. (dose exerting an antihypothermic effect equal to 50% of that caused by 15 mg/kg per os of imipramine).
Experimental: The results are expressed by an ED50 or dose of product, in mg/kg, capable of exerting an antihypothermic effect equal to 50% of the antihypothermic effect caused by 15 mg/kg (per os) of imipramine.
A further series deals with uptake of the choline. As to the kind of experiment: inhibition of the uptake of choline by synaptosomes of the rat's brain, striatum. The following applies: in vitro; for IC50: rat brain synaptosomes, striatum. It is filed as biochemical.
Series [4] relates to uptake of the dopamine (DA). As to the kind of experiment: inhibition of the uptake of dopamine (DA) by synaptosomes of the rat's brain, striatum. It counts as biochemical. The note with it: in vitro; for IC50: rat brain synaptosomes, striatum.
Text: as §1
Series [5] is described as follows: acute toxicity, oral, male mouse CD1. The note with it: in vivo, 3 days observation. The text has this:
The acute toxicities of the compounds of formula (I) have been determined on the male mouse CD1 (Charles River), the products being administered orally. The LD50 have been calculated, after 3 days observation, by the cumulative method of J. J. REED and H. MUENCH. (Amer. J. Hyg. 27, 493, 1938), which is relied upon herein for this purpose and the disclosure incorporated by reference.

The mark [6] stands for this setting: compared with imipramine and nomifensine.

Text for uptake of the choline: as §1

On to `CN(C)CCCN1c2ccccc2CCc2ccccc21` [Imipramine, reference compound], for which the half-maximal inhibitory concentration (IC50) is 130 nM in series [1], 80 nM in series [2], 30000 nM in the series with uptake of the choline and 55000 nM in series [4]. Besides, the ED50 in series [3] (mice, p.o., reserpine hypothermia) was 3 mg/kg.
For `c1ccc(C2CN3CCC2(c2ccccc2)CC3)cc1` (stereo not drawn) [Example 4, 3,4-diphenyl-1-aza-[2,2,2]-bicyclooctane], in series [1] (compared with imipramine), the “inhibiting effect on NA uptake, in words” value is recorded as “active on all the four mediators used; also recorded: near to that of the imipramine”. Moreover, the concentration for half-maximal inhibition (IC50) in series [1] was 45 nM; in series [2] it was 300 nM; in the series on uptake of the choline, 25000 nM; in series [4], 600 nM. In addition, the “inhibiting effect on 5-HT uptake, in words” value in series [2] (compared with imipramine) is given as “active on all the four mediators used; also recorded: near to that of the imipramine”. In series [3], the ED50 was 2 mg/kg. Moreover, in series [5], the LD50 at 72 h was 200 mg/kg. The “inhibiting activity on the neuronal uptake of the choline, in words” value in the series on uptake of the choline (setting [6]) is listed as “active on all the four mediators used; also recorded: near to that of the imipramine; also recorded: exerts on the neuronal uptake of the choline an inhibiting activity”. Also, the “inhibiting effect on uptake of the dopamine at the level of the striatum, in words” value in series [4] (setting [6]) is given as “active on all the four mediators used; also recorded: very superior to that of imipramine; also recorded: comes near to the nomifensine”.
